From ChEMBL document CHEMBL1144765, “Des-A-ring benzothiadiazines: inhibitors of HCV genotype 1 NS5B RNA-dependent RNA polymerase” (Bioorg Med Chem Lett, 2008)

Columns and labels:
Test in all cases: microbe, parasite or virus in culture
Hepatitis C virus [1] = conditions: genotype 1b
Description: Antiviral activity against HCV 1b in presence of 40% human serum by replicon based assay

Hepatitis C virus [2] = conditions: genotype 1b; remark: listed apart in the source
Description: Antiviral activity against HCV 1b in presence of 5% fetal calf serum by replicon based assay

Hepatitis C virus [3] = conditions: subtype 1a
Description: Antiviral activity against HCV 1a by replicon based assay

Hepatitis C virus [4] = conditions: genotype 1b; remark: listed apart in the source
Description: Antiviral activity against HCV 1b by replicon based assay

Row | SMILES | EC50 (Hepatitis C virus [1]) | EC50 (Hepatitis C virus [2]) | EC50 (Hepatitis C virus [3]) | EC50 (Hepatitis C virus [4])
1 | C=Cc1cn(CCC(C)C)c(=O)c(C2=NS(=O)(=O)c3cc(NS(C)(=O)=O)ccc3N2)c1O | 62.5 nM | 8.8 nM |  | 
2 | CC(C)CCn1c(=O)c(C2=NS(=O)(=O)c3cc(NS(C)(=O)=O)ccc3N2)c(O)c2cccnc21 | 736 nM | 2 nM | 16 nM | 2 nM
3 | C/C=C/c1cn(CCC(C)C)c(=O)c(C2=NS(=O)(=O)c3cc(NS(C)(=O)=O)ccc3N2)c1O | 38.2 nM | 5.6 nM |  | 
4 | CC(C)CCn1ccc(O)c(C2=NS(=O)(=O)c3cc(NS(C)(=O)=O)ccc3N2)c1=O | 911 nM | 163 nM |  | 
